Reference: patent US20170007675A1, “STABLE PEPTIDE FORMULATIONS AND METHODS FOR PREPARATION” (XERIS PHARMACEUTICALS, INC., priority 2014, published 2017)

Settings: 0.9 mg/mL in neat DMSO; 40° C.; six weeks; N=3
Description: Sample solutions (N=3) were prepared by solubilizing the lyophilized powder directly in neat DMSO to a concentration of 0.9 mg/mL pramlintide acetate. To test formulation stability in the polar aprotic solvent, the samples (N=3) were stored in sealed glass vials at 40° C. for six weeks.

Pramlintide acetate
appearance of sample solutions after storage: clear and absent of precipitation and visible aggregates
